We go through 23 compounds from ChEMBL document CHEMBL1143297, “Synthesis and CHK1 inhibitory potency of Hymenialdisine analogues” (Bioorg Med Chem Lett, 2009).

A word on the IC50: it is the point on the concentration scale where inhibition reaches its midpoint. Higher therefore signals weaker potency in that assay.

The source made the active and inactive calls. The calls are words filed in the database; no cut-off is given here. A value given as a limit tells only on which side of the number the result lay.

The target in the first assay is Serine/threonine-protein kinase SIK1 (Homo sapiens) (UniProt P57059). The assay can be described thus: Inhibition of SIK.
Chain of Serine/threonine-protein kinase SIK1 (Homo sapiens) (P57059 whole entry): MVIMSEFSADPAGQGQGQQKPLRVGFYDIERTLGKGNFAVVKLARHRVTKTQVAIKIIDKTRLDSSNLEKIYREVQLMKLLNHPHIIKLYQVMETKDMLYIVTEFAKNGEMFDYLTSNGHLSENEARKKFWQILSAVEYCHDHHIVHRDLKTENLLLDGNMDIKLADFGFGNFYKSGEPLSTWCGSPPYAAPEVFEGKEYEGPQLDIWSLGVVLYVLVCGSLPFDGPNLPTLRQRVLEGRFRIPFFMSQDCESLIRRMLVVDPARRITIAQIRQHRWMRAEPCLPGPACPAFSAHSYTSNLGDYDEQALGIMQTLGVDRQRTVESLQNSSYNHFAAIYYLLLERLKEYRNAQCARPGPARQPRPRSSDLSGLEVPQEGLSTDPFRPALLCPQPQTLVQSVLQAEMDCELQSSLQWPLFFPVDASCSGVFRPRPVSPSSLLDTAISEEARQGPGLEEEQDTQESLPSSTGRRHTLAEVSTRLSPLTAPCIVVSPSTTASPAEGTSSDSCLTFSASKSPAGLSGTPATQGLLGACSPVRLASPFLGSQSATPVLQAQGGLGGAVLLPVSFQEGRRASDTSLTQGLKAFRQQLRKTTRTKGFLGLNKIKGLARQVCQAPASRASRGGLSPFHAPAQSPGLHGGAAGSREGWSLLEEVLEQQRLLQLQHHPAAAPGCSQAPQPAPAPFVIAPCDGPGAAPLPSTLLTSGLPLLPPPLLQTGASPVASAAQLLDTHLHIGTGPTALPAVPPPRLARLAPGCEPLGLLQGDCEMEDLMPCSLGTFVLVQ
In the case of `NC1=NC(=O)/C(=C2\CCNC(=O)c3[nH]c4c(Br)csc4c32)N1`, the result was Active.

The target of the next assay is Glycogen synthase kinase-3 beta (Homo sapiens) (UniProt P49841). The assay can be described thus: Inhibition of GSK3-beta.
Chain of Glycogen synthase kinase-3 beta (Homo sapiens) (P49841 whole entry, looked up): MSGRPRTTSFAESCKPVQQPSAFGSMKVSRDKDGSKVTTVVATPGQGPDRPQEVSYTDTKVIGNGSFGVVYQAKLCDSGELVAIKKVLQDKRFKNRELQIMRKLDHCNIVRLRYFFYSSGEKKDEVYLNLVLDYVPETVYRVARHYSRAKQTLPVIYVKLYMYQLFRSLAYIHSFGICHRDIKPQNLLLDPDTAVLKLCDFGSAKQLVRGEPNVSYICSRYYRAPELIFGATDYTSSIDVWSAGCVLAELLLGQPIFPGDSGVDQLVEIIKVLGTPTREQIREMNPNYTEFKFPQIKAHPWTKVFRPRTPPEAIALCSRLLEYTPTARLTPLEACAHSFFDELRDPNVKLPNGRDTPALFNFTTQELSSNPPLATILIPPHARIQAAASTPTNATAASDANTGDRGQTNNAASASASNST
For the compound `NC1=NC(=O)/C(=C2\CCNC(=O)c3[nH]c4c(Br)csc4c32)N1`, the result was Active.

The next assay deals with T1, Serine/threonine-protein kinase Chk1 (Homo sapiens, UniProt O14757).
T1 sequence (O14757 whole entry): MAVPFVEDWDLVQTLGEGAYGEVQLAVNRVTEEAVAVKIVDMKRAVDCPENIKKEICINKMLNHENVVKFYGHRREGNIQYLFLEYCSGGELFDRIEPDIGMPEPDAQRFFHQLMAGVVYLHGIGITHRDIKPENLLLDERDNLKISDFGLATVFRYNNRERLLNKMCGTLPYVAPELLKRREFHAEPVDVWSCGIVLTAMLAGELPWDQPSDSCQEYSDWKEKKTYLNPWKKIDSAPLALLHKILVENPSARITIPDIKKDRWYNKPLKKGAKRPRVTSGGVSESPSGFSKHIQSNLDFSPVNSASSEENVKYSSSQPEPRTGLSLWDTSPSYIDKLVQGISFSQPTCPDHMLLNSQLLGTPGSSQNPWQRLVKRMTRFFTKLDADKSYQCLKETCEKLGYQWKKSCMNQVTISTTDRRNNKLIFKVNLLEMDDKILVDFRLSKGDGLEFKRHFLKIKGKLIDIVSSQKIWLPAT
Briefly: Inhibition of CHK1.
`NC1=NC(=O)/C(=C2\CCNC(=O)c3[nH]c4c(Cl)csc4c32)N1` yielded an IC50 of 140 nM.
Same read-out and setting: then `NC1=N/C(=C2/CCNC(=O)c3[nH]ccc32)C(=O)N1` [DEBROMOHYMENIALDISINE], with 330 nM.
The same measure, in the same setting: then `NC(=O)c1csc2c3c([nH]c12)C(=O)NCC/C3=C1/NC(N)=NC1=O`, with 150 nM; and `NC1=NC(=O)/C(=C2\CCNC(=O)c3[nH]c4cc(Cl)sc4c32)N1`, with 300 nM; and `Cn1c2c(c3sccc31)/C(=C1\NC(N)=NC1=O)CCNC2=O`, with above 10000 nM.
Still for that read-out and setting: next, `NC1=NC(=O)/C(=C2\CCNC(=O)c3[nH]c4c(sc5ccccc54)c32)S1`: above 10000 nM; `O=C(O)CNC1=NC(=O)/C(=C2\CCNC(=O)c3[nH]c4c(Br)csc4c32)N1`: 260 nM.
The compound `NC1=NC(=O)/C(=C2\CCNC(=O)c3[nH]c4cc(Br)sc4c32)N1` had an IC50 of 460 nM.
The same measure, in the same setting: next, `N#Cc1csc2c3c([nH]c12)C(=O)NCC/C3=C1/NC(N)=NC1=O`: 29 nM; `Nc1nc(C2=C3C(=Nc4ccccc43)C(=O)NCC2)c(O)[nH]1`: 470 nM.
For `NC1=NC(=O)/C(=C2\CCNC(=O)c3[nH]c4c(Br)csc4c32)S1`, 190 nM corresponded to half-maximal inhibition (IC50).
On the same count and under the same terms, then `NC1=NC(=O)/C(=C2\CCNC(=O)c3[nH]c4c(Cl)c(Cl)sc4c32)N1`, with 890 nM.
On the same count and under the same terms, next, `NC1=NC(=O)/C(=C2\CCNC(=O)c3[nH]c4c(Br)csc4c32)N1`: 14 nM; `NC1=NC(=O)/C(=C2\CCNC(=O)c3[nH]c4c(sc5ccccc54)c32)N1`: 230 nM.
For `NC1=NC(=O)/C(=C2\CCNC(=O)c3[nH]c(Br)cc32)N1` [HYMENIALDISINE], the midpoint of inhibition, the IC50, lay at 1900 nM.
On the same count and under the same terms, then `NC1=NC(=O)/C(=C2\CCNC(=O)c3[nH]c4c(-c5ccccc5)csc4c32)S1`, with above 10000 nM; and `NC1=NC(=O)/C(=C2\CCNC(=O)c3[nH]c4c(-c5ccccc5)csc4c32)N1`, with 1300 nM; and `O=C1N=C(NCCO)N/C1=C1/CCNC(=O)c2[nH]c3c(Br)csc3c21`, with 280 nM.
The same measure, in the same setting: then `NC1=NC(=O)/C(=C2\CCNC(=O)c3[nH]c(Br)c(Br)c32)N1`, with 100 nM; and `COc1ccc(Cn2c3c(c4scc(Br)c42)/C(=C2\NC(N)=NC2=O)CCNC3=O)cc1`, with above 10000 nM; and `NC1=NC(=O)/C(=C2\CCNC(=O)c3[nH]c4ccsc4c32)S1`, with 180 nM.
On the same count and under the same terms, then `O=C1N=C(NCCO)N/C1=C1/CCNC(=O)c2[nH]c3ccsc3c21`, with 1700 nM.
Consider `NC1=NC(=O)/C(=C2\CCNC(=O)c3[nH]c4ccsc4c32)N1`, for which the IC50 came to 150 nM.

For another assay, the target named is Receptor-type tyrosine-protein kinase FLT3 (Homo sapiens) (UniProt P36888). The assay can be described thus: Inhibition of FLT3.
Chain of Receptor-type tyrosine-protein kinase FLT3 (Homo sapiens) (P36888 whole entry): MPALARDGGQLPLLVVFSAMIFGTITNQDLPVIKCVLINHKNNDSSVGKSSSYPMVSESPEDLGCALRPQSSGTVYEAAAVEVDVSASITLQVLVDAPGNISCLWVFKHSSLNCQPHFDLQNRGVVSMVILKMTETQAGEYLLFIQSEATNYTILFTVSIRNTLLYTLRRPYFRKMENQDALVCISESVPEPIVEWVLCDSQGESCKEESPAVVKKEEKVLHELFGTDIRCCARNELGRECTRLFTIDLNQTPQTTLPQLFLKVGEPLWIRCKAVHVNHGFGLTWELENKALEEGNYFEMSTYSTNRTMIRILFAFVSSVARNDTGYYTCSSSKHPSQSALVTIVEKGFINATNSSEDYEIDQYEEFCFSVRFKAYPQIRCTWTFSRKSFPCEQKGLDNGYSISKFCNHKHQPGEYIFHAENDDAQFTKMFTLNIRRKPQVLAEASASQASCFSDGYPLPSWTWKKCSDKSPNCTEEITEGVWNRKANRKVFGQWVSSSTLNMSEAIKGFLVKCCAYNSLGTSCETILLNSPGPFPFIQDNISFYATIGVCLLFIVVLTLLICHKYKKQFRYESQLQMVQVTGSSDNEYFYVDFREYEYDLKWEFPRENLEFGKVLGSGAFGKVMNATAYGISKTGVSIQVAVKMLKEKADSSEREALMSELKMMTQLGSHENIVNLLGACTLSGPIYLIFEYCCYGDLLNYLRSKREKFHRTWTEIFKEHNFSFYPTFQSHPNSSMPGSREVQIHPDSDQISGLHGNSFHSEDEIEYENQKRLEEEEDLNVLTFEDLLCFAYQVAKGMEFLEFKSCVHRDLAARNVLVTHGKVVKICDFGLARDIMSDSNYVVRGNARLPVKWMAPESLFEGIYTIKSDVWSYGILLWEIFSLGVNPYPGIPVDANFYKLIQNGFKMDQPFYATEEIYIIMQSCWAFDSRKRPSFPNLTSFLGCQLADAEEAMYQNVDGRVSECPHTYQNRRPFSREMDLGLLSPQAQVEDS
Take `NC1=NC(=O)/C(=C2\CCNC(=O)c3[nH]c4c(Br)csc4c32)N1`: the result was Active.

In a further assay the target is T2, NUAK family SNF1-like kinase 1 (Homo sapiens) (UniProt O60285).
T2 sequence (whole entry): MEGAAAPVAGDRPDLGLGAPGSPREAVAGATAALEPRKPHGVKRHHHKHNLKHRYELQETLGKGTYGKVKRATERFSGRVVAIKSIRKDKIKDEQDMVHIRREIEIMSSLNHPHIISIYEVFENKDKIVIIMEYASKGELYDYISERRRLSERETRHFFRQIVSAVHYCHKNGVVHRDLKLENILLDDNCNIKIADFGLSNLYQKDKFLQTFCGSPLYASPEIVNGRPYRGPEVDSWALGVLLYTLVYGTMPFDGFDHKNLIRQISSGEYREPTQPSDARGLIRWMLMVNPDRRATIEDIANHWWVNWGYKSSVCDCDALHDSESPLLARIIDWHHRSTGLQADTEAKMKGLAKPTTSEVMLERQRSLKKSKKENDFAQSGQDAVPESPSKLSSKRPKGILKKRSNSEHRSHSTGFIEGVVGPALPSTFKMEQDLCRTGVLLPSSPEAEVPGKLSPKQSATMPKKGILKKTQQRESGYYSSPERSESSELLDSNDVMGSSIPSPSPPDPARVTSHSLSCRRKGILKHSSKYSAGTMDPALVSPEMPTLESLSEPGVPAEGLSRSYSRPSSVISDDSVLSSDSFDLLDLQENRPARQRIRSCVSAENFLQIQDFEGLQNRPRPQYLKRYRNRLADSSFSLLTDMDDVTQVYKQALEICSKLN
Briefly: Inhibition of ARK5.
Consider `NC1=NC(=O)/C(=C2\CCNC(=O)c3[nH]c4c(Br)csc4c32)N1`, for which the outcome was Active.
